“And” between values parts separate entries of the source, which are not always exact repeats. Identical values can stand only once. Like-named read-outs stand apart in the source and are kept apart here.
Experiments:
rat CYP51 = target: T1, rat CYP51 (Rattus norvegicus, UniProt Q64654); assay: CYP51 enzymatic assay (LC/MS quantitation of FF-MAS); format: biochemical; conditions: for IC50: lanosterol 50 μM, 30 minutes, read-out: IC50 for inhibition of rodent CYP51 in vitro
T1 construct: purchased Cypex, Inc
T1 sequence (Q64654 1-503): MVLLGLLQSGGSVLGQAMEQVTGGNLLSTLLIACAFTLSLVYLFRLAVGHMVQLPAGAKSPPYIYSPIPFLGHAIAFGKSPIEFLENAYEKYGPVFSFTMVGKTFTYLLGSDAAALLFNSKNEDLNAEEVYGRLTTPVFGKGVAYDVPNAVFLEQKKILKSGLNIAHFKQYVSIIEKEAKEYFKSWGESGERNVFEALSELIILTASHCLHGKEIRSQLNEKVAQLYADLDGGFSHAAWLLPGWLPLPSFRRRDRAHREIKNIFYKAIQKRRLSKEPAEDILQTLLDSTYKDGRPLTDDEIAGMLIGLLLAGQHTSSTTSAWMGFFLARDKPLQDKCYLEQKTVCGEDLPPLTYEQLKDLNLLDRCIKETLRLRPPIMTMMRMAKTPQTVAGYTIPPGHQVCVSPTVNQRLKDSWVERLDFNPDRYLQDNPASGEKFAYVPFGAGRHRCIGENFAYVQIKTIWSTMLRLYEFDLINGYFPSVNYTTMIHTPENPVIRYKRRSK
Procedure: Finally, 15 μl of each reaction/isopropanol mixture was injected onto a SCIEX Triple Quad 6500 LC-MS/MS system using an APCI ion source in positive ion mode with a Shimadzu UFLC-20AD HPLC and a Phenomenex

EpiSC-derived OPCs [1] = assay: High-throughput screening of 3,000 bioactive small molecules for MBP+ oligodendrocyte formation from OPCs; format: cell-based, mouse; conditions: 2 μM, 72 h; for fold induction at 2 µM: Mus musculus, relative to DMSO controls of the same plate, read-out: fold-change in % MBP + oligodendrocytes; for % 0ligos: MBP+ oligodendrocytes
Description: Plates were imaged on the Operetta High Content Imaging and Analysis system (PerkinElmer) and a set of 6 fields captured from each well resulting in an average of 1200 cells being scored per well. Analysis (PerkinElmer Harmony and Columbus software) began by identifying intact nuclei stained by DAPI; that is, those traced nuclei that were larger than 300 μm^2 in surface area. Each traced nucleus region was then expanded by 50% and cross-referenced with the […] (MBP) stain to identify oligodendrocyte nuclei, and from this the percentage of oligodendrocytes was calculated. In some experiments, the total process length of MBP+ oligodendrocytes was calculated as previously described.
EpiSC-derived OPCs were grown and expanded in poly-ornithine and laminin-coated flasks before harvesting for plating. Cells were dispensed in differentiation media supplemented with Noggin (R&D Systems; 100 ng/ml), Neurotrophin 3 (R&D Systems; 10 ng/ml), cAMP (Sigma; 50 μM), and IGF-1 (R&D Systems; 100 ng/ml)) using a Biotek EL406 Microplate Washer Dispenser (Biotek) equipped with 5 μL dispense cassette (Biotek), into poly-D-lysine/laminin (Sigma, L2020; 4 μg/ml)-coated sterile, 384-well, CellCarrier ultra plates (PerkinElmer), to a final density of 12,500 cells per well and allowed to attach for 45 min before addition of drug. A 3 mM stock of bioactive compound library in dimethylsulphoxide (DMSO) were prepared in an Abgene storage 384-well plate (ThermoFisher Scientific; AB1055). These were added to assay plates using a 50 nL solid pin tool attached to Janus automated workstation (Perkin Elmer), resulting in a final screening concentration of 2 μM. Cells were incubated at 37° C. for 1 hour and then T3 (Sigma; 40 ng/ml) was added to all wells except negative controls, to which FGF (20 ng/ml) was added instead. Negative controls and T3-alone were included in each assay plate. After incubation at 37° C. for 72 h, cells were fixed, washed and stained similar to 96-well OPC assay protocol, although all the washing steps were performed using a Biotek EL406 Microplate Washer Dispenser (Biotek) equipped with a 96-well aspiration manifold. Cells were stained with DAPI (Sigma; 1 μg/ml) and MBP antibody (Abcam, ab7349; 1:100). Plates were imaged on the Operetta High Content Imaging and Analysis system (PerkinElmer) and a set of 4 fields captured from each well resulting in an average of 700 cells being scored per well. Analysis was performed as in High-Content Imaging and Analysis, above. All plates for the primary screen were processed and analyzed simultaneously to minimize variability. Molecules causing more than 20% reduction in nuclear count relative to DMSO control wells were removed from consideration, and hits were called on the basis of largest fold-increase in percentage of MBP+ oligodendrocytes relative to DMSO controls within the same plate.

EpiSC-derived OPCs [2] = assay: In vitro phenotypic screening of OPCs (MBP+ oligodendrocytes at 72 h); format: cell-based, mouse; conditions: for oligodendrocyte formation in combination with ketoconazole: ketoconazole 2.5 μM (maximally effective dose)
OPCs = assay: GC/MS-based sterol profiling in OPCs; format: cell-based, mouse; conditions: for sterol levels / sterol intermediate accumulation in OPCs: 24 h treatment (siRNA 96 h)
EBP = target: T2, EBP (Mus musculus, UniProt P70245); assay: EBP enzymatic assay (GC/MS); format: biochemical; conditions: 10 μM, zymostenol 25 μM
T2 construct: active EBP was obtained from mouse microsomes; from tissue
T2 sequence (P70245 1-230): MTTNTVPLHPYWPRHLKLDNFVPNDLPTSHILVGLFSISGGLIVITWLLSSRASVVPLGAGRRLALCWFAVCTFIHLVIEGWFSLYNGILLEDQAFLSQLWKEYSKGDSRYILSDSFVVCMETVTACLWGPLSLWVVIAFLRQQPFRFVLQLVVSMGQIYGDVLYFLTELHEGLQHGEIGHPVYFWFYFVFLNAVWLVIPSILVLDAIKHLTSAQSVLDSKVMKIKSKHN

EpiSC-derived OPCs [3] = assay: Oligodendrocyte formation on electrospun microfibers; format: cell-based, mouse; conditions: 14 days
Procedure: A 12-well plate containing Mimetex aligned scaffold (microfiber plate, AMSBIO, AMS.TECL-006-1X, Electrospun poly-L-lactide Scaffold, […] cell crown inserts) was prepared as previously described. Briefly, inserts were sterilized with 70% ethanol and washed with PBS before being coated with polyornithine and laminin. After laminin coating, 100,000 cells/mL of EpiSC-derived OPCs were plated in differentiation medium. After 24 h the media was replaced with fresh media containing small molecule treatments. Every 48 h the media was replaced with fresh compound containing media for a total of 14 days. Plates were fixed with 4% PFA, permeabilized with 0.1% Triton X-100, and blocked with 10% donkey serum (v/v) in PBS for 60 min. Plates were stained for MBP (Abcam, ab7349; 1:100) and DAPI staining (Sigma; 5 μg/ml). After staining, the inserts were moved into new 12-well plate and covered with 2 mL of PBS before imaging in Operetta high content Imaging and analysis system. […] Analysis (PerkinElmer Harmony and Columbus software) identified intact nuclei stained by DAPI and calculated the MBP signal intensity per cell per well. Microfiber insert tracking images were taken using a Leica DMi8 with a 20× Dry/NA 0.40 objective. Microfiber plate inserts were mounted using Flouromount-G (SouthernBiotech) and allowed to partially harden before coverslips were added and the insert ring was removed. Confocal images were obtained on a Leica SP8 confocal scanning microscope, with 40× oil/NA 1.30 objective. Confocal stacks of 0.336 μm z-steps were taken at 1024×1024. Each fluorophore was excited sequentially and all contrast and brightness changes were applied consistently between images.

[4] = tested on: human glioma cells (GBM528); assay: GC/MS sterol profiling in human glioma cell line; format: cell-based; conditions: 24 h
[5] = tested on: human induced pluripotent stem cell-derived cortical spheroids; assay: GC/MS sterol profiling in human cortical spheroids; format: cell-based; conditions: 2 μM, 24 h
T47D cells = conditions: 5 days
LPC-lesioned spinal cord = assay: LPC focal demyelination of spinal cord, remyelination histology; format: in vivo, mouse; conditions: ifenprodil 10 mg per kg, tamoxifen 2 mg per kg, daily intraperitoneal, 8 days from day 4 after lesion

## CC(=O)N1CCN(c2ccc(OC[C@@H]3CO[C@](Cn4ccnc4)(c4ccc(Cl)cc4Cl)O3)cc2)CC1 (stereo in doubt) [R-trans-Ketoconazole]
Rat CYP51
  inhibition of mammalian CYP51 in vitro: strikingly less effective at inhibiting mammalian CYP51

## CC(=O)N1CCN(c2ccc(OC[C@H]3CO[C@@](Cn4ccnc4)(c4ccc(Cl)cc4Cl)O3)cc2)CC1 (stereo in doubt) [S-trans-Ketoconazole]
Rat CYP51
  inhibition of mammalian CYP51 in vitro: strikingly less effective at inhibiting mammalian CYP51

## Clc1ccccc1C(c1ccccc1)(c1ccccc1)n1ccnc1 [Clotrimazole]
EpiSC-derived OPCs [1]
  cell viability (% relative to DMS0): 112.83% and 122.50%
  fold induction at 2 µM: 3.85
Rat CYP51
  IC50: 300 to 700 nM

## Cc1cc(C)c(CNC(=O)c2cc(-c3ccc(CN4CCOCC4)cc3)cc3c2cnn3C2CCCC2)c(=O)[nH]1 [EPZ005687]
EpiSC-derived OPCs [1]
  cell viability (% relative to DMS0): 91.36%
  % 0ligos: 50.00%
  fold induction at 2 µM: 5.9
EpiSC-derived OPCs [2]; 72 h
  formation of MBP+ oligodendrocytes from OPCs: enhanced oligodendrocyte formation in both our mouse epiblast stem cell-derived OPCs and mouse primary OPCs
OPCs
  sterol levels / sterol intermediate accumulation in OPCs: uniquely caused accumulation of zymosterol and zymostenol in OPCs
EBP
  inhibition of EBP enzymatic activity: directly inhibiting EBP enzymatic activity

## OCCOCCN1CCN(C(c2ccccc2)c2ccc(Cl)cc2)CC1 (centres unmarked) [Hydroxyzine 2HCl]
EpiSC-derived OPCs [1]
  cell viability (% relative to DMS0): 134.19%
  % 0ligos: 40.63%
  fold induction at 2 µM: 4.8
EBP
  inhibition of EBP enzymatic activity: directly inhibiting EBP enzymatic activity

## CC(=O)N1CCN(c2ccc(OCC3COC(Cn4ccnc4)(c4ccc(Cl)cc4Cl)O3)cc2)CC1 (centres unmarked) [Ketoconazole]
EpiSC-derived OPCs [1]
  % 0ligos: 52.77%
Rat CYP51
  IC50: 300 to 700 nM
EpiSC-derived OPCs [3]
  MBP+ oligodendrocyte tracking along and wrapping of microfibers: significantly enhanced MBP+ oligodendrocyte tracking along and wrapping of the microfibers

## COc1ccc(S(=O)(=O)N2CCC(N3CCC(C)CC3)CC2)cc1 [TASIN-1]
EpiSC-derived OPCs [2]; 72 h
  formation of MBP+ oligodendrocytes from OPCs: enhanced formation of MBP+ oligodendrocytes
EBP
  inhibition of EBP enzymatic activity: clear inhibition
EpiSC-derived OPCs [3]
  MBP+ oligodendrocyte tracking along and wrapping of microfibers: significantly enhanced MBP+ oligodendrocyte tracking along and wrapping of the microfibers

## CCC(C)(C)c1ccc(CC(C)CN2C[C@@H](C)O[C@@H](C)C2)cc1 (some centres unmarked) [amorolfine, Amorolfine]
EpiSC-derived OPCs [2]; 72 h
  formation of MBP+ oligodendrocytes from OPCs: enhanced formation of MBP+ oligodendrocytes
EpiSC-derived OPCs [3]
  MBP+ oligodendrocyte tracking along and wrapping of microfibers: significantly enhanced MBP+ oligodendrocyte tracking along and wrapping of the microfibers

## CN1[C@@H]2CC[C@H]1C[C@@H](OC(c1ccccc1)c1ccccc1)C2 [benztropine, Benztropine]
EpiSC-derived OPCs [2]; 72 h
  oligodendrocyte formation in combination with ketoconazole: did not enhance differentiation above levels seen for ketoconazole alone
OPCs
  sterol levels / sterol intermediate accumulation in OPCs: induced accumulation of zymostenol and zymosterol and decreased basal sterol levels
EBP
  inhibition of EBP enzymatic activity: clear inhibition

## OC(Cn1cncn1)(Cn1cncn1)c1ccc(F)cc1F [fluconazole, Fluconazole]
Rat CYP51
  inhibition of mammalian CYP51 in vitro: did not inhibit mammalian CYP51 in vitro

## Clc1ccc(COC(Cn2ccnc2)c2ccc(Cl)cc2Cl)c(Cl)c1 (centres unmarked) [miconazole, Miconazole]
Rat CYP51
  IC50: 300 to 700 nM
[4]
  sterol intermediate accumulation in human glioma cell line: caused accumulation of the expected sterol intermediates
[5]
  8,9-unsaturated sterol accumulation in human cortical spheroids: led to 8,9-unsaturated sterol accumulation

## OCCOc1ccc(/C(=C(/CCCl)c2ccccc2)c2ccccc2)cc1 [ospemifene, Ospemifene]
EpiSC-derived OPCs [2]
  formation of MBP+ oligodendrocytes from OPCs: did not enhance differentiation to MBP+ oligodendrocytes
OPCs
  enzyme inhibited in OPCs as indicated by sterol profile: did not inhibit EBP in OPCs
T47D cells
  antiestrogen effect on estrogen-dependent growth: comparable antiestrogen effects

## CC/C(=C(\c1ccccc1)c1ccc(OCCN(C)C)cc1)c1ccccc1 [tamoxifen, Tamoxifen]
EpiSC-derived OPCs [2]; 72 h
  oligodendrocyte formation in combination with ketoconazole: did not enhance differentiation above levels seen for ketoconazole alone
OPCs
  sterol levels / sterol intermediate accumulation in OPCs: induced accumulation of zymostenol and zymosterol and decreased basal sterol levels
EBP
  inhibition of EBP enzymatic activity: clear inhibition
LPC-lesioned spinal cord
  remyelination of LPC lesion: remyelination was widespread throughout the lesion
[4]
  sterol intermediate accumulation in human glioma cell line: caused accumulation of the expected sterol intermediates

## CN(C)CCOc1ccc(/C(=C(/CCCl)c2ccccc2)c2ccccc2)cc1 [toremifene, Toremifene]
EpiSC-derived OPCs [2]; 72 h
  formation of MBP+ oligodendrocytes from OPCs: enhanced MBP+ oligodendrocyte generation over a wide dose range
OPCs; 24 h
  enzyme inhibited in OPCs as indicated by sterol profile: inhibited EBP
T47D cells
  antiestrogen effect on estrogen-dependent growth: comparable antiestrogen effects

Reference: US20180228743A1, “COMPOUNDS AND METHODS OF PROMOTING MYELINATION” (Case Western Reserve University, priority 2016, published 2018)
